Measurements published in ChEMBL document CHEMBL1201862, “PubChem BioAssay data set” (2004).
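1) Cells in 96-well plates. 2) Compound, 48 h, 5 concentrations. 3) Linear interpolation between surrounding doses. 4) Unreached endpoint = highest concentration. GI50 is the concentration that inhibits growth by half.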 The source made the active and inactive calls. Rule as the data show it: active = GI50 up to about 1.1 µM and inactive = higher.

Assays:
Test in all cases: NCI tumour cell line growth inhibition, 48 h
HCT-116 = test system: HCT-116
UO-31 = test system: UO-31
OVCAR-8 = test system: OVCAR-8
KM12 = test system: KM12
OVCAR-4 = test system: OVCAR-4
M14 = test system: M14
A549 = test system: A549
UACC-62 = test system: UACC-62
SK-MEL-28 = test system: SK-MEL-28
DLD-1 = test system: DLD-1
ACHN = test system: ACHN
SW-620 = test system: SW-620
IGROV-1 = test system: IGROV-1
SF-295 = test system: SF-295
XF498 = test system: XF498
CCRF-CEM = test system: CCRF-CEM
SF-539 = test system: SF-539
U-251 = test system: U-251
HOP-18 = test system: HOP-18
UACC-257 = test system: UACC-257
DMS-114 = test system: DMS-114
SN12C = test system: SN12C
Malme-3M = test system: Malme-3M
K562 = test system: K562
NCI-H460 = test system: NCI-H460
DMS-273 = test system: DMS-273
NCI-H226 = test system: NCI-H226
HT-29 = test system: HT-29
SK-MEL-5 = test system: SK-MEL-5
OVCAR-3 = test system: OVCAR-3
MOLT-4 = test system: MOLT-4
NCI-H522 = test system: NCI-H522
TK-10 = test system: TK-10
HCT-15 = test system: HCT-15
NCI-H23 = test system: NCI-H23
M19-MEL = test system: M19-MEL
SF-268 = test system: SF-268
SNB-75 = test system: SNB-75
LOX IMVI = test system: LOX IMVI
786-0 = test system: 786-0
LXFL 529 = test system: LXFL 529
HL-60 = test system: HL-60
SK-OV-3 = test system: SK-OV-3
SK-MEL-2 = test system: SK-MEL-2
SNB-78 = test system: SNB-78
HOP-92 = test system: HOP-92
EKVX = test system: EKVX
SR = test system: SR
COLO 205 = test system: COLO 205
RPMI-8226 = test system: RPMI-8226
RXF 393 = test system: RXF 393
OVCAR-5 = test system: OVCAR-5
KM-20L2 = test system: KM-20L2
CAKI-1 = test system: CAKI-1
HOP-62 = test system: HOP-62
HCC 2998 = test system: HCC 2998
SNB-19 = test system: SNB-19
A498 = test system: A498
NCI/ADR-RES = test system: NCI/ADR-RES
MCF7 = test system: MCF7

CC(Oc1ccc(OCC2CCCCC2)cc1)C(=O)O (stereo not given)
GI50 (HCT-116): > 100 µM (inactive) | GI50 (UO-31): > 100 µM (inactive) | GI50 (OVCAR-8): > 100 µM (inactive) | GI50 (KM12): > 100 µM (inactive) | GI50 (OVCAR-4): > 100 µM (inactive) | GI50 (M14): > 100 µM (inactive) | GI50 (A549): > 100 µM (inactive) | GI50 (UACC-62): > 100 µM (inactive) | GI50 (SK-MEL-28): > 100 µM (inactive) | GI50 (DLD-1): > 100 µM (inactive) | GI50 (ACHN): > 100 µM (inactive) | GI50 (SW-620): > 100 µM (inactive) | GI50 (IGROV-1): > 100 µM (inactive) | GI50 (SF-295): > 100 µM (inactive) | GI50 (XF498): > 100 µM (inactive) | GI50 (CCRF-CEM): > 100 µM (inactive) | GI50 (SF-539): > 100 µM (inactive) | GI50 (U-251): > 100 µM (inactive) | GI50 (HOP-18): > 100 µM (inactive) | GI50 (UACC-257): > 100 µM (inactive) | GI50 (DMS-114): > 100 µM (inactive) | GI50 (SN12C): > 100 µM (inactive) | GI50 (Malme-3M): > 100 µM (inactive) | GI50 (K562): > 100 µM (inactive) | GI50 (NCI-H460): > 100 µM (inactive) | GI50 (DMS-273): > 100 µM (inactive) | GI50 (NCI-H226): > 100 µM (inactive) | GI50 (HT-29): > 100 µM (inactive) | GI50 (SK-MEL-5): > 100 µM (inactive) | GI50 (OVCAR-3): > 100 µM (inactive) | GI50 (MOLT-4): > 100 µM (inactive) | GI50 (NCI-H522): > 100 µM (inactive) | GI50 (TK-10): > 100 µM (inactive) | GI50 (HCT-15): > 100 µM | GI50 (NCI-H23): > 100 µM (inactive) | GI50 (M19-MEL): > 100 µM (inactive) | GI50 (SF-268): > 100 µM (inactive) | GI50 (SNB-75): > 100 µM (inactive) | GI50 (LOX IMVI): > 100 µM (inactive) | GI50 (786-0): > 100 µM (inactive) | GI50 (LXFL 529): > 100 µM (inactive) | GI50 (HL-60): > 100 µM (inactive) | GI50 (SK-OV-3): > 100 µM (inactive) | GI50 (SK-MEL-2): > 100 µM (inactive) | GI50 (SNB-78): > 100 µM (inactive)

CCCCc1c2c(nc3c1CCc1cc(C=O)c(N)nc1-3)/C(=C/c1ccccc1)CCC2
GI50 (HCT-116): > 100 µM (inactive) | GI50 (UO-31): > 100 µM (inactive) | GI50 (HOP-92): > 100 µM (inactive) | GI50 (OVCAR-8): 46.2 µM (inactive) | GI50 (KM12): > 100 µM (inactive) | GI50 (OVCAR-4): > 100 µM (inactive) | GI50 (EKVX): 48.4 µM (inactive) | GI50 (M14): > 100 µM (inactive) | GI50 (A549): 19.6 µM (inactive) | GI50 (UACC-62): > 100 µM (inactive) | GI50 (SK-MEL-28): > 100 µM (inactive) | GI50 (ACHN): > 100 µM (inactive) | GI50 (SW-620): > 100 µM (inactive) | GI50 (SR): 58.5 µM (inactive) | GI50 (IGROV-1): > 100 µM (inactive) | GI50 (COLO 205): 17 µM (inactive) | GI50 (SF-295): > 100 µM (inactive) | GI50 (XF498): 44.4 µM (inactive) | GI50 (CCRF-CEM): > 100 µM (inactive) | GI50 (SF-539): > 100 µM (inactive) | GI50 (RPMI-8226): > 100 µM (inactive) | GI50 (U-251): > 100 µM (inactive) | GI50 (HOP-18): > 100 µM (inactive) | GI50 (UACC-257): > 100 µM (inactive) | GI50 (DMS-114): > 100 µM (inactive) | GI50 (SN12C): > 100 µM (inactive) | GI50 (RXF 393): > 100 µM (inactive) | GI50 (Malme-3M): > 100 µM (inactive) | GI50 (K562): > 100 µM (inactive) | GI50 (OVCAR-5): > 100 µM (inactive) | GI50 (NCI-H460): 40.8 µM (inactive) | GI50 (DMS-273): > 100 µM (inactive) | GI50 (NCI-H226): > 100 µM (inactive) | GI50 (HT-29): > 100 µM (inactive) | GI50 (SK-MEL-5): > 100 µM (inactive) | GI50 (KM-20L2): > 100 µM (inactive) | GI50 (OVCAR-3): > 100 µM (inactive) | GI50 (MOLT-4): 52.2 µM (inactive) | GI50 (NCI-H522): > 100 µM (inactive) | GI50 (CAKI-1): > 100 µM (inactive) | GI50 (TK-10): > 100 µM (inactive) | GI50 (HCT-15): 86.3 µM | GI50 (NCI-H23): > 100 µM (inactive) | GI50 (M19-MEL): > 100 µM (inactive) | GI50 (SF-268): > 100 µM (inactive) | GI50 (SNB-75): > 100 µM (inactive) | GI50 (HOP-62): > 100 µM (inactive) | GI50 (LOX IMVI): > 100 µM (inactive) | GI50 (HCC 2998): 29.9 µM (inactive) | GI50 (786-0): > 100 µM (inactive) | GI50 (LXFL 529): > 100 µM (inactive) | GI50 (SNB-19): > 100 µM (inactive) | GI50 (HL-60): 63.1 µM (inactive) | GI50 (SK-OV-3): > 100 µM (inactive) | GI50 (SK-MEL-2): > 100 µM (inactive) | GI50 (A498): 19.9 µM (inactive) | GI50 (SNB-78): > 100 µM (inactive)

CC(=O)OCC1OC(n2cc(F)c(=O)[nH]c2=O)C(N)C(OC(C)=O)C1OC(C)=O (stereo not given)
GI50 (HCT-116): > 100 µM (inactive) | GI50 (UO-31): > 100 µM (inactive) | GI50 (HOP-92): > 100 µM (inactive) | GI50 (OVCAR-8): > 100 µM (inactive) | GI50 (KM12): > 100 µM (inactive) | GI50 (OVCAR-4): > 100 µM (inactive) | GI50 (EKVX): > 100 µM (inactive) | GI50 (A549): > 100 µM (inactive) | GI50 (UACC-62): > 100 µM (inactive) | GI50 (DLD-1): > 100 µM (inactive) | GI50 (SW-620): > 100 µM (inactive) | GI50 (IGROV-1): > 100 µM (inactive) | GI50 (COLO 205): > 100 µM (inactive) | GI50 (SF-295): > 100 µM (inactive) | GI50 (XF498): > 100 µM (inactive) | GI50 (CCRF-CEM): > 100 µM (inactive) | GI50 (SF-539): > 100 µM (inactive) | GI50 (RPMI-8226): > 100 µM (inactive) | GI50 (U-251): > 100 µM (inactive) | GI50 (HOP-18): > 100 µM (inactive) | GI50 (UACC-257): > 100 µM (inactive) | GI50 (DMS-114): > 100 µM (inactive) | GI50 (SN12C): > 100 µM (inactive) | GI50 (RXF 393): > 100 µM (inactive) | GI50 (Malme-3M): > 100 µM (inactive) | GI50 (K562): > 100 µM (inactive) | GI50 (OVCAR-5): > 100 µM (inactive) | GI50 (NCI-H460): > 100 µM (inactive) | GI50 (DMS-273): > 100 µM (inactive) | GI50 (NCI-H226): > 100 µM (inactive) | GI50 (HT-29): > 100 µM (inactive) | GI50 (SK-MEL-5): > 100 µM (inactive) | GI50 (KM-20L2): > 100 µM (inactive) | GI50 (OVCAR-3): > 100 µM (inactive) | GI50 (MOLT-4): > 100 µM (inactive) | GI50 (NCI-H522): > 100 µM (inactive) | GI50 (CAKI-1): > 100 µM (inactive) | GI50 (NCI/ADR-RES): > 100 µM (inactive) | GI50 (HCT-15): > 100 µM | GI50 (NCI-H23): > 100 µM (inactive) | GI50 (M19-MEL): > 100 µM (inactive) | GI50 (SF-268): > 100 µM (inactive) | GI50 (SNB-75): > 100 µM (inactive) | GI50 (HOP-62): > 100 µM (inactive) | GI50 (LOX IMVI): > 100 µM (inactive) | GI50 (HCC 2998): > 100 µM (inactive) | GI50 (MCF7): > 100 µM (inactive) | GI50 (SNB-19): > 100 µM (inactive) | GI50 (HL-60): > 100 µM (inactive) | GI50 (SK-OV-3): > 100 µM (inactive) | GI50 (SK-MEL-2): > 100 µM (inactive) | GI50 (A498): > 100 µM (inactive) | GI50 (SNB-78): > 100 µM (inactive)
